Source: publication PMC5736936, “Xylopine Induces Oxidative Stress and Causes G2/M Phase Arrest, Triggering Caspase-Mediated Apoptosis by p53-Independent Pathway in HCT116 Cells” (Oxidative Medicine and Cellular Longevity, 2017)
Read-outs that look alike come from different tables or passages of the source.

Tests used:
HCT116 cells [1] = assay type: cell-based, human
Description: Cells were harvested in a permeabilization solution containing 0.1% Triton X-100 (Sigma Chemical Co., St Louis, MO, USA), 2 μg/mL propidium iodide (Sigma Chemical Co.), 0.1% sodium citrate, and 100 μg/mL RNAse (Sigma Chemical Co.) and incubated in the dark for 15 min at room temperature. Finally, cell fluorescence was measured by flow cytometry on a BD LSRFortessa cytometer using the BD FACSDiva software (BD Biosciences) and FlowJo software 10 (FlowJo, LCC, Ashland, OR, USA).

HCT116 cells [2] = assay: Nitric oxide production (DAF-FM diacetate); assay type: cell-based, human; settings: 1 h
Description: Nitric oxide generation was detected with 4-amino-5-methylamino-2′-,7′-difluofluorescein diacetate (DAF-FM diacetate) (Molecular Probes, Eugene, OR, USA). The cells were labeled with 3 μM of DAF-FM diacetate for 60 minutes at 37°C. Following staining cells were washed with saline and incubated for an additional 15 minutes at 37°C to allow for complete deesterification of the intracellular diacatates. Then, the nitric oxide radical was measured by flow cytometry as described above.

HCT116 cells [3] = assay: Mitochondrial transmembrane potential (rhodamine 123); assay type: cell-based, human; settings: HCT116, rhodamine 123, 24 h, p < 0.05
Description: Mitochondrial transmembrane potential was determined by the retention of the dye rhodamine 123 [9]. Cells were incubated with rhodamine 123 (5 μg/mL, Sigma-Aldrich Co.) at room temperature for 15 min in the dark and washed with saline. The cells were then incubated again in saline for 30 min in the dark and cell fluorescence was determined by flow cytometry as described above.

HCT116 cells [4] = assay: Annexin V-FITC/PI staining assay (flow cytometry), with protection assays; assay type: cell-based, human
Description: For apoptosis detection, we used the FITC Annexin V Apoptosis Detection Kit I (BD Biosciences), and the analysis was performed according to the manufacturer's instructions. The cell fluorescence was determined by flow cytometry as described above. The protection assays using a caspase-3 inhibitor (Z-DEVD-FMK, BD Biosciences), a p53 inhibitor (cyclic pifithrin-α, Cayman Chemical, Ann Arbor, MI, USA), and an antioxidant N-acetyl-L-cysteine (NAC, Sigma-Aldrich Co.) were performed. In brief, the cells were pretreated for 2 h with 50 μM Z-DEVD-FMK and 10 μM cyclic pifithrin-α and for 1 h with 5 mM NAC, followed by incubation with 14 μM xylopine for 48 h. The cells were then trypsinized and the FITC Annexin V Apoptosis Detection assay was conducted as described above.

[5] = tested on: BAD KO SV40 MEF (BAD gene knockout immortalized mouse embryonic fibroblast); assay: Cytotoxic activity in BAD gene knockout fibroblasts; assay type: cell-based; settings: BAD KO SV40 MEF cell line
Description: MCF7 (human breast carcinoma), HCT116 (human colon carcinoma), HepG2 (human hepatocellular carcinoma), SCC-9 (human oral squamous cell carcinoma), HSC-3 (human oral squamous cell carcinoma), HL-60 (human promyelocytic leukemia), K-562 (human chronic myelogenous leukemia), B16-F10 (murine melanoma), MRC-5 (human lung fibroblast), WT SV40 MEF (wild-type immortalized mouse embryonic fibroblast), and BAD KO SV40 MEF (BAD gene knockout immortalized mouse embryonic fibroblast) cell lines were obtained from the American Type Culture Collection (ATCC, Manassas, VA, USA). Cells were cultured in complete medium with appropriate supplements as recommended by ATCC. All cell lines were tested for mycoplasma using the Mycoplasma Stain Kit (Sigma-Aldrich) to validate the use of cells free from contamination. Primary cell culture of peripheral blood mononuclear cells (PBMC) was obtained by standard Ficoll density protocol. The Research Ethics Committee of the Oswaldo Cruz Foundation (Salvador, BA, Brazil) approved the experimental protocol (number 031019/2013). Cell viability was examined using trypan blue exclusion assay for all experiments.
Cell viability was quantified using the alamarBlue assay according to Ahmed et al.. Cells were inserted in 96-well plates for all experiments (7 × 10^4 cells/mL for adherent cells or 3 × 10^5 cells/mL for suspended cells in 100 μL of medium). After 24 h, xylopine was dissolved in dimethyl sulfoxide (DMSO) and added to each well and incubated for 72 h. […] Four (for cell lines) or 24 h (for PBMCs) before the end of incubation, 20 μL of a stock solution (0.312 mg/mL) of the alamarBlue (resazurin, Sigma-Aldrich Co., Saint Louis, MO, USA) was added to each well. Absorbance at 570 nm and 600 nm was measured using the SpectraMax 190 Microplate Reader (Molecular Devices, Sunnyvale, CA, USA), and the drug effect was quantified as the percentage of control absorbance.

calf thymus DNA (ctDNA) = assay: DNA intercalation assay (ethidium bromide displacement); assay type: binding; settings: 10 or 20 μM xylopine, 15 μg/mL ctDNA, 1.5 μM ethidium bromide
Description: DNA intercalation was assessed by examining the ability of xylopine to displace ethidium bromide from calf thymus DNA (ctDNA, Sigma-Aldrich Co.). The assay was conducted in 96-well plates and contained 15 μg/mL ctDNA, 1.5 μM ethidium bromide, and 10 or 20 μM xylopine in 100 μL saline solution. […] Fluorescence was measured using excitation and emission wavelengths of 320 and 600 nm, respectively.

[6] = HCT116, XYL 3.5 μM, 24 h incubation
[7] = HCT116, XYL 3.5 μM, 48 h incubation
[8] = HCT116, XYL 7 μM, 24 h incubation
[9] = HCT116, XYL 7 μM, 48 h incubation
[10] = HCT116, XYL 14 μM, 24 h incubation
[11] = HCT116, XYL 14 μM, 48 h incubation

Q: What does the source list for COc1ccc2c(c1)C[C@@H]1NCCc3cc4c(c-2c31)OCO4 [XYL, xylopine]?
A: DNA content (%) G0/G1 (HCT116 cells [1]; [6]): 17.0 ± 7.0^∗ %; DNA content (%) G2/M (HCT116 cells [1]; [6]): 57.2 ± 3.5^∗ %; DNA content (%) S (HCT116 cells [1]; [6]): 24.7 ± 4.8%; DNA content (%) Sub-G0/G1 (HCT116 cells [1]; [6]): 6.2 ± 1.9%; DNA content (%) G2/M (HCT116 cells [1]; HCT116, XYL 3.5 μM, 24 h incubation, listed as xylopine): 57.2%; DNA content (%) G0/G1 (HCT116 cells [1]; [7]): 17.0 ± 6.3^∗ %; DNA content (%) G2/M (HCT116 cells [1]; [7]): 52.0 ± 6.8^∗ %; DNA content (%) S (HCT116 cells [1]; [7]): 11.1 ± 2.2%; DNA content (%) Sub-G0/G1 (HCT116 cells [1]; [7]): 15.2 ± 1.9%; DNA content (%) G2/M (HCT116 cells [1]; HCT116, XYL 3.5 μM, 48 h incubation, listed as xylopine): 52.0%; DNA content (%) G0/G1 (HCT116 cells [1]; [8]): 14.9 ± 4.2^∗ %; DNA content (%) G2/M (HCT116 cells [1]; [8]): 58.5 ± 2.9^∗ %; DNA content (%) S (HCT116 cells [1]; [8]): 23.3 ± 3.7%; DNA content (%) Sub-G0/G1 (HCT116 cells [1]; [8]): 5.1 ± 1.6%; DNA content (%) G2/M (HCT116 cells [1]; HCT116, XYL 7 μM, 24 h incubation, listed as xylopine): 58.5%; DNA content (%) G0/G1 (HCT116 cells [1]; [9]): 10.3 ± 1.3^∗ %; DNA content (%) G2/M (HCT116 cells [1]; [9]): 52.7 ± 3.6^∗ %; DNA content (%) S (HCT116 cells [1]; [9]): 6.8 ± 2.0%; DNA content (%) Sub-G0/G1 (HCT116 cells [1]; [9]): 25.9 ± 2.5^∗ %; DNA content (%) G2/M (HCT116 cells [1]; HCT116, XYL 7 μM, 48 h incubation, listed as xylopine): 52.7%; DNA content (%) G0/G1 (HCT116 cells [1]; [10]): 30.5 ± 6.0%; DNA content (%) G2/M (HCT116 cells [1]; [10]): 54.0 ± 6.1^∗ %; DNA content (%) S (HCT116 cells [1]; [10]): 11.1 ± 1.6%; DNA content (%) Sub-G0/G1 (HCT116 cells [1]; [10]): 11.3 ± 1.4%; DNA content (%) G2/M (HCT116 cells [1]; HCT116, XYL 14 μM, 24 h incubation, listed as xylopine): 54.0%; DNA content (%) G0/G1 (HCT116 cells [1]; [11]): 14.6 ± 2.6^∗ %; DNA content (%) G2/M (HCT116 cells [1]; [11]): 40.8 ± 5.7^∗ %; DNA content (%) S (HCT116 cells [1]; [11]): 9.3 ± 1.7%; DNA content (%) Sub-G0/G1 (HCT116 cells [1]; [11]): 33.4 ± 6.2^∗ %; DNA content (%) G2/M (HCT116 cells [1]; HCT116, XYL 14 μM, 48 h incubation, listed as xylopine): 40.8%; nitric oxide level (HCT116 cells [2]): increases nitric oxide; mitochondrial depolarization (HCT116 cells [3]): induced mitochondrial depolarization; xylopine-induced apoptosis on cotreatment with caspase-3 inhibitor (Z-DEVD-FMK) (HCT116 cells [4]; HCT116, 50 μM Z-DEVD-FMK 2 h, then 14 μM xylopine 48 h): prevented; xylopine-induced increase of cell death by apoptosis on cotreatment with NAC (HCT116 cells [4]; HCT116, 5 mM NAC 1 h, then 14 μM xylopine 48 h): prevented; early and late apoptosis (HCT116 cells [4]; HCT116, annexin V/PI, 24 and 48 h, p < 0.05): significantly increased; necrotic cells (HCT116 cells [4]; HCT116, annexin V/PI, 48 h, p < 0.05): significant increase; IC50 [5]: 6.4 µM; displacement of ethidium bromide from ctDNA (fluorescence intensity) (calf thymus DNA (ctDNA)): not able to decrease the ethidium bromide fluorescence
